The record followed here is patent publication US20250346574A1, “PYRIDINYL SUBSTITUTED OXOISOINDOLINE COMPOUNDS FOR THE TREATMENT OF CANCER” (Bristol-Myers Squibb Company, priority 2021, published 2025).

Each structure is given as a SMILES string.

Helios, sequence (Q9UKS7 whole entry): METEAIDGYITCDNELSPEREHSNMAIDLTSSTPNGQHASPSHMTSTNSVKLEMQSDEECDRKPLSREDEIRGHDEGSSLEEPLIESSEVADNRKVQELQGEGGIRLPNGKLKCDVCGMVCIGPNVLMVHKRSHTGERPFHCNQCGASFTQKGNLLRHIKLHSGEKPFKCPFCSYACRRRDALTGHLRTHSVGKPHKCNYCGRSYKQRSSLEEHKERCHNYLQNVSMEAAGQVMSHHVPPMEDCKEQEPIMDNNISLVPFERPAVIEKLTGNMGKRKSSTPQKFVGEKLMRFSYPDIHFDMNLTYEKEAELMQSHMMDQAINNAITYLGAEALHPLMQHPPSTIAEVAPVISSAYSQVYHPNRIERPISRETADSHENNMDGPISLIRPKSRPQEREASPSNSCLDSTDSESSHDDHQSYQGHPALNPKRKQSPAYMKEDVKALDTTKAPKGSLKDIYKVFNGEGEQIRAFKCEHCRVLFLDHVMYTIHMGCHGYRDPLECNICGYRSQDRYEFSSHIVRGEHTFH
Helios, sequence (Q96SW2 whole entry): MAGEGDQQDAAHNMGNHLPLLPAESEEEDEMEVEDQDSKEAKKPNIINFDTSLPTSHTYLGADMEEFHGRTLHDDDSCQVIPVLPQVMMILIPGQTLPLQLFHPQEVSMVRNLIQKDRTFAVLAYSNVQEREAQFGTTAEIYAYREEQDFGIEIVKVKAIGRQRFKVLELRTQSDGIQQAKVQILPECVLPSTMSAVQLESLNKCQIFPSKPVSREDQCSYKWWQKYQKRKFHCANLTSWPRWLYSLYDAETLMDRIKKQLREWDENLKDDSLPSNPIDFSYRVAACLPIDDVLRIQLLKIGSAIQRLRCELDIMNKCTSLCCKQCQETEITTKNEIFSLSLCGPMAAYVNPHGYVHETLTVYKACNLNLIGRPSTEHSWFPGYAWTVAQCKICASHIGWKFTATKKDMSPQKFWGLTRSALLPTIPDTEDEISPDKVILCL
Helios, sequence (Q16531 whole entry partner): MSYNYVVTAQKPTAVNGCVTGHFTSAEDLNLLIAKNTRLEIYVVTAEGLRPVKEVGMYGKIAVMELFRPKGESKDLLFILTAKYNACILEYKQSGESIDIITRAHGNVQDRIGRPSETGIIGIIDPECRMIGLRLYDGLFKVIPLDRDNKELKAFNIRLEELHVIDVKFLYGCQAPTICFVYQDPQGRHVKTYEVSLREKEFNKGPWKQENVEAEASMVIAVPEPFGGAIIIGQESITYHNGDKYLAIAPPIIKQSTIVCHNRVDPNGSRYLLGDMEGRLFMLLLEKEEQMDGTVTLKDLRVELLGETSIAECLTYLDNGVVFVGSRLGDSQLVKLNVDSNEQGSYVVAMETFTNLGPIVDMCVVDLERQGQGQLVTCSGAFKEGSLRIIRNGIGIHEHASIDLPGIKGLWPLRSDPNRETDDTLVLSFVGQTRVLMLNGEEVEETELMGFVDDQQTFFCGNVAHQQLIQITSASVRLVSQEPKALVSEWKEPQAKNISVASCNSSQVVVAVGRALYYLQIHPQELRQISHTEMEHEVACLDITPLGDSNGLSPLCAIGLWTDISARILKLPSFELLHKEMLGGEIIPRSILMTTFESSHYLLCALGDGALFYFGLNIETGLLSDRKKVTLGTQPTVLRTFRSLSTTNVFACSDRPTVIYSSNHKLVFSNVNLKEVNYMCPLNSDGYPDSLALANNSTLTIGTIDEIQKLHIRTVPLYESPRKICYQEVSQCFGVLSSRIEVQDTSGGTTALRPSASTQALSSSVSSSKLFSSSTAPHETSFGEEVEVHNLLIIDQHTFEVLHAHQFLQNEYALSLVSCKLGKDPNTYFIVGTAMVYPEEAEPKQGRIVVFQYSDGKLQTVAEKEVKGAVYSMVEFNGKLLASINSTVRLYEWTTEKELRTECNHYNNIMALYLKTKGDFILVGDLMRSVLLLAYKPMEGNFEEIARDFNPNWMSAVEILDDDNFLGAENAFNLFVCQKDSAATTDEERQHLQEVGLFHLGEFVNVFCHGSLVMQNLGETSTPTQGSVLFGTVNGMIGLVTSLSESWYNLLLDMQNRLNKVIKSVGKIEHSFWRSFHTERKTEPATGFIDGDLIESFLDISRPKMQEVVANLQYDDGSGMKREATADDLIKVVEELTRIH

The target of the test is Helios (Homo sapiens, UniProt Q96SW2+Q9UKS7). The experiment in a line: Helios Human T Regulatory Cells Degradation Assay. The format is cell-based. Also noted: fluorescently labelled antibodies against Helios in 1× Permeabilization buffer; endogenous in cells; host or cells: cryopreserved human T regulatory cells. Particulars: cryopreserved human T regulatory cells, incubated 20 hours, Helios-APC antibody staining, flow cytometry; read-out: hTreg Helios DC50. Here is the method:
Cryopreserved human T regulatory cells were thawed in RPMI+10% FBS+20 ng/mL IL-2. After being spun at 1200 rpm for 5 mins, the cells were resuspended in RPMI+10% FBS+20 ng/mL and rested at 37° C. with 5% CO2 for 3 hours. […] Cell cultures were incubated for 20 hours at 37° C. and 5% CO2. In order to facilitate analysis, cell cultures were spun down at 1200 rpm for 5 minutes and the supernatant was discarded using an EL406 plate washer. After washing three times with 70 μL PBS, cell pellets were resuspended in 50 μL of near IR viability staining solution (Life Technologies, Cat #L34975) and incubated for 30 minutes on ice protected from light. Cells were washed three times with 70 μL PBS+0.5% BSA using an EL406 plate washer. […] Subsequently, 30 μL of 1× Permeabilization buffer was added prior to centrifuging the cells and discarding the supernatant. Stained cells were resuspended in 30 μL of flow cytometry staining buffer (PBS+0.5% BSA) and analyzed using an Intellicyt Ique Plus flow cytometer.
On the technique in general: Flow cytometry measures light scatter and fluorescence of single cells or particles in a stream.
As usually defined, the DC50 is the midpoint of the concentration-degradation curve. `C[C@@H]1c2c(ccc(-c3cc(CN4CCC(O)(c5ccccc5)C4)ccn3)c2F)C(=O)N1[C@H]1CCC(=O)NC1=O` (stereo partly drawn) [Example 139, (3S)-3-((3R)-4-fluoro-5-(4-((3-hydroxy-3-phenylpyrrolidin-1-yl)methyl)pyridin-2-yl)-3-methyl-1-oxoisoindolin-2-yl)piperidine-2,6-dione]: the DC50 turned out to be 367 nM.

On to `C[C@@H]1c2c(ccc(-c3cc(CN4CCC(C)(O)C4)ccn3)c2F)C(=O)N1[C@H]1CCC(=O)NC1=O` (stereo partly drawn) [Example 140, (3S)-3-((3R)-4-fluoro-5-(4-((3-hydroxy-3-methylpyrrolidin-1-yl)methyl)pyridin-2-yl)-3-methyl-1-oxoisoindolin-2-yl)piperidine-2,6-dione], for which the DC50 turned out to be 79.1 nM.

In the case of `C[C@@H]1c2c(ccc(-c3cc(CN4CC[C@@H](Oc5ccccc5)C4)ccn3)c2F)C(=O)N1[C@H]1CCC(=O)NC1=O` [Example 141, (S)-3-((R)-4-fluoro-3-methyl-1-oxo-5-(4-(((R)-3-phenoxypyrrolidin-1-yl)methyl)pyridin-2-yl)isoindolin-2-yl)piperidine-2,6-dione], the 50% degradation concentration (DC50) was not below 10000 nM.

On to `C[C@@H]1c2c(ccc(-c3cc(CN4CC[C@H](F)C4)ccn3)c2F)C(=O)N1[C@H]1CCC(=O)NC1=O` [Example 142], for which the DC50 is 706 nM.

Consider `O=C1CC[C@H](N2Cc3cc(-c4cc(CN5CC6(CC(O)C6)C5)ccn4)ccc3C2=O)C(=O)N1` [Example 145, (S)-3-(5-(4-((6-hydroxy-2-azaspiro[3.3]heptan-2-yl)methyl)pyridin-2-yl)-1-oxoisoindolin-2-yl)piperidine-2,6-dione], for which the DC50 was 0.7 nM.

Consider `O=C1CC[C@H](N2Cc3cc(-c4cc(CN5CC6CC(O)CC6C5)ccn4)ccc3C2=O)C(=O)N1` (stereo partly drawn) [Example 146, (3S)-3-(5-(4-((5-hydroxyhexahydrocyclopenta[c]pyrrol-2(1H)-yl)methyl)pyridin-2-yl)-1-oxoisoindolin-2-yl)piperidine-2,6-dione], for which the 50% degradation concentration (DC50) was determined as 3 nM.

`CC1=CC2CN(Cc3ccnc(-c4ccc5c(c4)CN([C@H]4CCC(=O)NC4=O)C5=O)c3)CC2C1` (stereo partly drawn) [Example 148, (3S)-3-(5-(4-((5-methyl-3,3a,4,6a-tetrahydrocyclopenta[c]pyrrol-2(1H)-yl)methyl)pyridin-2-yl)-1-oxoisoindolin-2-yl)piperidine-2,6-dione]: the DC50 was 3.7 nM.

As for `O=C1CC[C@H](N2Cc3cc(-c4nccc(CN5C[C@H]6CCC(O)C[C@H]6C5)c4F)ccc3C2=O)C(=O)N1` (stereo partly drawn) [Example 149, (3S)-3-(5-(3-fluoro-4-(((3aR,7aS)-5-hydroxyoctahydro-2H-isoindol-2-yl)methyl)pyridin-2-yl)-1-oxoisoindolin-2-yl)piperidine-2,6-dione], the DC50 is 6.7 nM.

As for `O=C1CC[C@H](N2Cc3cc(-c4nccc(CN5CCC6(CCNC6=O)CC5)c4F)ccc3C2=O)C(=O)N1` [Example 150, (S)-3-(5-(3-fluoro-4-((1-oxo-2,8-diazaspiro[4.5]decan-8-yl)methyl)pyridin-2-yl)-1-oxoisoindolin-2-yl)piperidine-2,6-dione], the DC50 is not below 10000 nM.

Regarding `O=C1CC[C@H](N2Cc3cc(-c4nccc(CN5C[C@H]6COC[C@H]6C5)c4F)ccc3C2=O)C(=O)N1` [Example 151, (S)-3-(5-(3-fluoro-4-(((3aR,6aS)-tetrahydro-1H-furo[3,4-c]pyrrol-5(3H)-yl)methyl)pyridin-2-yl)-1-oxoisoindolin-2-yl)piperidine-2,6-dione], the DC50 worked out at 167 nM.

For the molecule `O=C1CC[C@H](N2Cc3cc(-c4cc(CN5C[C@H]6COC[C@H]6C5)ccn4)ccc3C2=O)C(=O)N1` [Example 152, (S)-3-(1-oxo-5-(4-(((3aR,6aS)-tetrahydro-1H-furo[3,4-c]pyrrol-5(3H)-yl)methyl)pyridin-2-yl)isoindolin-2-yl)piperidine-2,6-dione], the DC50 came to 18.8 nM.

For the molecule `O=C1CC[C@H](N2Cc3cc(-c4nccc(CN5CC6(CC(O)C6)C5)c4F)ccc3C2=O)C(=O)N1` [Example 153, (S)-3-(5-(3-fluoro-4-((6-hydroxy-2-azaspiro[3.3]heptan-2-yl)methyl)pyridin-2-yl)-1-oxoisoindolin-2-yl)piperidine-2,6-dione], the DC50 is 15.3 nM.

Take `CC(C)(C)OC(=O)N1C[C@@H]2CN(Cc3ccnc(-c4ccc5c(c4)CN([C@H]4CCC(=O)NC4=O)C5=O)c3F)C[C@H]2C1` [Example 154, tert-butyl (3aS,6aS)-5-((2-(2-((S)-2,6-dioxopiperidin-3-yl)-1-oxoisoindolin-5-yl)-3-fluoropyridin-4-yl)methyl)hexahydropyrrolo[3,4-c]pyrrole-2(1H)-carboxylate]: the DC50 worked out at 284 nM.

With `O=C1CC[C@H](N2Cc3cc(-c4nccc(CN5CC6CCCC6C5)c4F)ccc3C2=O)C(=O)N1` (stereo partly drawn) [Example 155, (3S)-3-(5-(3-fluoro-4-((hexahydrocyclopenta[c]pyrrol-2(1H)-yl)methyl)pyridin-2-yl)-1-oxoisoindolin-2-yl)piperidine-2,6-dione], the DC50 worked out at 10.9 nM.

Consider `CC(C)(C)OC(=O)N1C[C@H]2CN(Cc3ccnc(-c4ccc5c(c4)CN([C@H]4CCC(=O)NC4=O)C5=O)c3F)C[C@H]2C1` [Example 156, tert-butyl (3aR,6aS)-5-((2-(2-((S)-2,6-dioxopiperidin-3-yl)-1-oxoisoindolin-5-yl)-3-fluoropyridin-4-yl)methyl)hexahydropyrrolo[3,4-c]pyrrole-2(1H)-carboxylate], for which the DC50 is not below 10000 nM.

In the case of `O=C1CCC(N2Cc3cc(-c4cc(CN5CC6(CCCCC6)C5)ccn4)ccc3C2=O)C(=O)N1` (stereo not drawn) [Example 157, 3-(5-(4-((2-azaspiro[3.5]nonan-2-yl)methyl)pyridin-2-yl)-1-oxoisoindolin-2-yl) piperidine-2,6-dione], the DC50 stood at 2.5 nM.

Regarding `O=C1CC[C@H](N2Cc3cc(-c4cc(CN5CC6(CCOCC6)C5)ccn4)ccc3C2=O)C(=O)N1` [Example 158, (S)-3-(5-(4-((7-oxa-2-azaspiro[3.5]nonan-2-yl)methyl)pyridin-2-yl)-1-oxoisoindolin-2-yl)piperidine-2,6-dione], the DC50 turned out to be 3.2 nM.

As to `O=C1CCC(N2Cc3cc(-c4cc(CN5CC(CNC(=O)c6ccccc6)C5)ccn4)ccc3C2=O)C(=O)N1` (stereo not drawn) [Example 159, N-((1-((2-(2-(2,6-dioxopiperidin-3-yl)-1-oxoisoindolin-5-yl)pyridin-4-yl)methyl)azetidin-3-yl)methyl)benzamide], the DC50 turned out to be 14.6 nM.

On to `CN(C(=O)c1ccccc1)C1CN(Cc2ccnc(-c3ccc4c(c3)CN([C@H]3CCC(=O)NC3=O)C4=O)c2)C1` [Example 160, (S)—N-(1-((2-(2-(2,6-dioxopiperidin-3-yl)-1-oxoisoindolin-5-yl)pyridin-4-yl)methyl)azetidin-3-yl)-N-methylbenzamide], for which the DC50 was 61.9 nM.

As for `CN(C1CN(Cc2ccnc(-c3ccc4c(c3)CN([C@H]3CCC(=O)NC3=O)C4=O)c2)C1)S(C)(=O)=O` [Example 161, (S)—N-(1-((2-(2-(2,6-dioxopiperidin-3-yl)-1-oxoisoindolin-5-yl)pyridin-4-yl)methyl)azetidin-3-yl)-N-methylmethanesulfonamide], the DC50 was found to be 223 nM.

Take `CN(C1CN(Cc2ccnc(-c3ccc4c(c3)CN([C@H]3CCC(=O)NC3=O)C4=O)c2)C1)S(=O)(=O)c1ccccc1` [Example 162, (S)—N-(1-((2-(2-(2,6-dioxopiperidin-3-yl)-1-oxoisoindolin-5-yl)pyridin-4-yl)methyl)azetidin-3-yl)-N-methylbenzenesulfonamide]: the DC50 turned out to be 28.7 nM.

As to `CN(CC1CN(Cc2ccnc(-c3ccc4c(c3)CN([C@H]3CCC(=O)NC3=O)C4=O)c2)C1)C(=O)c1ccccc1` [Example 164, (S)—N-((1-((2-(2-(2,6-dioxopiperidin-3-yl)-1-oxoisoindolin-5-yl)pyridin-4-yl)methyl)azetidin-3-yl)methyl)-N-methylbenzamide], the DC50 is 15.9 nM.

Take `O=C1CCC(N2Cc3cc(-c4cc(Cn5cccn5)ccn4)ccc3C2=O)C(=O)N1` (stereo not drawn) [Example 165, 3-(5-(4-((1H-pyrazol-1-yl)methyl)pyridin-2-yl)-1-oxoisoindolin-2-yl)piperidine-2,6-dione]: the DC50 was 178 nM.

For `Cc1cnn(Cc2ccnc(-c3ccc4c(c3)CN([C@H]3CCC(=O)NC3=O)C4=O)c2)c1` [Example 166, (S)-3-(5-(4-((4-methyl-1H-pyrazol-1-yl)methyl)pyridin-2-yl)-1-oxoisoindolin-2-yl)piperidine-2,6-dione], the DC50 is not below 10000 nM.

As for `Cc1cnc(-c2ccc3c(c2)CN(C2CCC(=O)NC2=O)C3=O)cc1CN1CCC(C(C)(C)O)CC1` (stereo not drawn) [Example 167, 3-(5-(4-((4-(2-hydroxypropan-2-yl)piperidin-1-yl)methyl)-5-methylpyridin-2-yl)-1-oxoisoindolin-2-yl)piperidine-2,6-dione], the DC50 turned out to be 1 nM.

Regarding `Cc1cnc(-c2ccc3c(c2)CN(C2CCC(=O)NC2=O)C3=O)cc1CN1CC2(CCC2)C1` (stereo not drawn) [Example 168, 3-(5-(4-((2-azaspiro[3.3]heptan-2-yl)methyl)-5-methylpyridin-2-yl)-1-oxoisoindolin-2-yl)piperidine-2,6-dione], the 50% degradation concentration (DC50) was 3.7 nM.

Regarding `Cc1cnc(-c2ccc3c(c2)CN(C2CCC(=O)NC2=O)C3=O)cc1CN1CCC(C2CC2)C1` (stereo not drawn) [Example 169, 3-(5-(4-((3-cyclopropylpyrrolidin-1-yl)methyl)-5-methylpyridin-2-yl)-1-oxoisoindolin-2-yl)piperidine-2,6-dione], the DC50 worked out at 4 nM.
